Experimental data reported in patent publication US20240067634A1, “INHIBITORS OF NEF DOWNMODULATION” (priority 2020, published 2024).
Where two headings read alike, the source gives them in different places.

Key:
HIV-1 Nef = target: T1, HIV-1 Nef (Human immunodeficiency virus 1, UniProt P03406); experiment: Anti-Nef activity: reversal of Nef-dependent MHC-I HLA-A2 downmodulation, flow cytometry; format: cell-based
T1 sequence (P03406 2-206): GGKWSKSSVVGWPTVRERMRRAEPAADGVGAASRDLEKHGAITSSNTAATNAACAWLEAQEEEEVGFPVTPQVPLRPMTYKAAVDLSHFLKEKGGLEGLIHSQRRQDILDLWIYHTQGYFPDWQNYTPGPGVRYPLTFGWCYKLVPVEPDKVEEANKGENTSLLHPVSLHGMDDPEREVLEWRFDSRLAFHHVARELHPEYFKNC
Description: Determination of anti-Nef activity: To identify molecules with enhanced Nef inhibition, decreased toxicity and decreased inhibition of lysosomes, the analogs of the disclosure are screened initially for Nef inhibitory activity using a high throughput assay in HIV-1 infected CEM-A2 cells. These cells are infected with an HIV-1 reporter construct for 48 hours and then exposed to potential inhibitors for 24 hours. Cells are harvested and stained for flow cytometric analysis of HLA-A2 surface expression, and the fold downmodulation of HLA-A2 are calculated by comparing expression on uninfected cells to that on infected cells.
PBMCs is isolated from leukopaks, CD8-depleted, and stimulated with PHA.
To assess their toxicity, an MTT assay was used, which measures […] dehydrogenase activity. Metabolically active cells reduce MTT to MTT-formazan leading to a color change. For this analysis, PHA-activated primary human PBMCs were exposed to a range of concentrations of each drug continuously for 72 hours of culture.

[1] = target: V-ATPase-dependent lysosomal acidification; experiment: cells; format: cell-based, human; conditions: 24 hr Lysotracker IC50; 1000 nM set as activity threshold (FIG. 11-14); read-out: Lyso IC50
Excerpt: Determine effect on V-ATPase activity: Plecomacrolides are known inhibitors of V-ATPase that neutralize normally acidified lysosomes. […] Thus, analogs of the disclosure are further characterized by measuring their effects on lysosome acidification.
LysoTracker® is a fluorophore linked to a weak base that is partially protonated at neutral pH. This form of the probe is capable of freely permeating cell membranes of live cells. In acidic compartments, protonation creates a form that was impermeable causing the probe to accumulate inside the lysosome.

C57BL/6J mice = conditions: cited from earlier work
C57BL/6J and BALB/c mice = conditions: five consecutive doses at 12 mg/kg; cited from earlier work
[2] = tested on: Nef-dependent degradation of MHC-I and CD4; experiment: Western blot of Nef-dependent protein degradation in sorted HIV-1 infected primary T cells; format: cell-based, human
[3] = tested on: HIV-1 WT infected primary T cells; experiment: In vitro flow cytometric anti-HIV-1 CTL killing assay; format: cell-based, human; conditions: low dose CMA (0.5 nM in FIG. 8); anti-HIV-1 CTL clone
Description: Numbers are mean percent infected cell survival after a 4 hour incubation with a 2:1 effector:target (E:T) ratio of an anti-HIV-1 CTL clone recognizing Gag SL9 epitope (n=2).
Mean +/− standard deviation is shown n=2. E:T, effector:target.
Therefore, the effect of promising Nef inhibitor analogs is generated as disclosed herein on anti-HIV-1 CTL killing using the in vitro flow cytometric CTL killing assay developed previously (FIGS. 1 and 8 ? (Collins et al., 1998). These studies utilize CTL clones reactive against various HIV-1 epitopes known to be affected by Nef (Collins et al., 1998).

[4] = HIV-1 infected primary T lymphocytes
[5] = intraperitoneal daily over three days, 10 mg/kg

SMILES | IC50 [1] | restoration of MHC-I HLA-A2 surface expression (HIV-1 Nef; [4]) | overall body weight (C57BL/6J and BALB/c mice) | pancreatic islet cell size (C57BL/6J and BALB/c mice) | random blood glucose (C57BL/6J and BALB/c mice) | also measured
C/C=C/[C@H]1O[C@@H]([C@@H](C)[C@H](O)[C@H](C)[C@H]2OC(=O)/C(OC)=C/C(C)=C/[C@@H](C)[C@@H](O)[C@@H](CC)[C@@H](O)[C@H](C)C/C(C)=C/C=C/[C@@H]2OC)C[C@@H](O)[C@@H]1C [21-Deoxy CMF, 21-deoxy concanamycin F] | 23.3 nM | – | – | – | – | IC50 (HIV-1 Nef; 24 hr Nef activity IC50, independent donors, 1000 nM set as activity threshold (FIG. 11-14)): 4.29 nM
CO/C1=C\C(C)=C\[C@@H](C)[C@@H](O)[C@@H](C)C/C(C)=C/C=C/[C@H](OC)[C@@H]([C@@H](C)[C@@H](O)[C@H](C)[C@@]2(O)C[C@@H](O)[C@H](C)[C@@H](C(C)C)O2)OC1=O [BafA1, Bafilomycin A1] | 45.2 nM | restore MHC-I HLA-A2 | not affected | decrease in pancreatic islet cell size | did not cause significant variations | weight loss (C57BL/6J mice; 25 mg/kg, within 12 days of injection): 30%; body weight (C57BL/6J mice; [5]): maintained a normal weight; liver toxicity (C57BL/6J mice; [5]): no evidence of liver toxicity; liver enzymes (C57BL/6J mice; intraperitoneal, 25 mg/kg): increases in liver enzymes indicative of liver damage
C/C=C/[C@H]1O[C@@](O)([C@@H](C)[C@H](O)[C@H](C)[C@H]2OC(=O)/C(OC)=C/C(C)=C/[C@@H](C)[C@@H](O)[C@@H](CC)[C@@H](O)[C@H](C)C/C(C)=C/C=C/[C@@H]2OC)C[C@@H](O[C@H]2C[C@@H](O)[C@H](OC(N)=O)[C@@H](C)O2)[C@@H]1C [CMA, Concanamycin A] | 0.977 nM | restore MHC-I HLA-A2 | not affected | decrease in pancreatic islet cell size | did not cause significant variations | concentration with activity in restoring MHC-I HLA-A2 (HIV-1 Nef; HIV-1 infected primary T lymphocytes, FIG. 2): ~100 pM; Nef-dependent degradation of MHC-I ([2]; antibody HC-10, FIG. 9): selectively reverses; Nef-mediated CD4 degradation ([2]; concentrations sufficient to reverse Nef-mediated degradation of MHC-I, FIG. 9): did not significantly alter; CTL killing of HIV-1 WT infected primary T cells [3]: increases CTL killing
CO/C1=C\C(C)=C\C(C)C(O)C(C)C/C(C)=C/C=C/C(OC)C(C(C)C(O)C(C)C2(O)CC(O[C@@H]3O[C@@H](C)[C@H](O)[C@@H](O)[C@H]3OC)C(C)C(C(C)C)O2)OC1=O (stereo partly drawn) [Leucanicidin, reference compound] | 2.04 nM | – | – | – | – | –
CC=CC=CC1OC(O)(C(C)C(O)C(C)C2OC(=O)C(OC)=CC(C)=CC(C)C(O)C(C)CC(C)=CC=CC2OC)CC(OC2CC(O)C(O)C(C)O2)C1C (stereo not drawn) [PC-766B, reference compound] | 2.72 nM | – | – | – | – | –
C/C=C/C1OC(O)(C(C)C(O)C(C)C2OC(=O)/C(OC)=C/C(C)=C/C(C)C(O)C(CC)C(O)C(C)C/C(C)=C/C=C/C2OC)CC(OC(=O)/C=C/C(=O)NC2=C(O)CCC2=O)C1C (stereo not drawn) [Virustomycin, reference compound] | 3.68 nM | – | – | – | – | IC50 (HIV-1 Nef): 0.688 nM
